The values below come from publication PMC9325719 (Nature Communications, 2022).

The experiment concerns the target Na+-NQR (Na+-pumping NADH-ubiquinone oxidoreductase), inhibitor site at NqrB N-terminal region (Vibrio cholerae, UniProt A5F5X0, E157A). Conditions: substrates NADH and ubiquinone-1; 50% inhibition not reached at highest concentration; mutant activity 50-60% lower than wild type.

One may read the IC50 as the concentration at which inhibition is half-maximal. Read a low IC50 as greater potency in that assay.

Some results are limits rather than exact numbers.

`CCCCCCCC[C@H]1O[C@H]1C/C=C/C=C/[C@H](O)CC(=O)NC1=C[C@](C)(CC)OC1=O` [korormicin A] displayed an IC50 of more than 2 µM.
